This note sets out measurements from patent US7524860B2, “Antibacterial agents” (Pfizer Inc., priority 2004, dated 2009).

Values after ≈ are worked out from the molar mass of the structure shown. Where two headings read alike, the source gives them in different places.

Series [1] concerns Neisseria gonorrhoeae, GC525 (NG-2888). Briefly: in-vitro antibacterial activity, microbroth dilution MIC susceptibility testing. It is filed as cell-based. Also on record: unit: ug/mL. Conditions: microbroth dilution in gonococcal broth, 20-24 hours at 35 C, lowest concentration preventing visible growth. The essentials: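 Broth microdilution in gonococcal broth, inoculum ~5×10^5 cfu/mL, 20-24 h at 35 C in humidified CO2; compounds from 2 mg/mL DMSO stocks over 64-0.06 and 1-0.001 ug/mL two-fold series. MIC is the lowest concentration preventing visible growth, read visually; duplicates differing one well give the lower value, two wells the middle value.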
(In broth dilution the organism is exposed to a series of concentrations in liquid medium.)

Setting [2] is: Neisseria gonorrhoeae, read-out: MIC.

As to `CCNC(=O)Nc1nc2cc(-c3cccnc3)ccn2n1` [Example 1, 1-Ethyl-3-(7-pyridin-3-yl-[1,2,4]triazolo[1,5-a]pyridin-2-yl)-urea], the melting point – broadly, the temperature of the solid-liquid transition – fell in the range of 230 to 233 °C. In addition, in series [1] (setting [2]), the MIC (usually the lowest concentration that inhibits growth of the organism) was found to be 32 µg/mL (≈ 113 µM). The corresponding values for `CCNC(=O)Nc1nc2cc(-c3ccc(OC)nc3)ccn2n1` [Example 2, 1-Ethyl-3-[7-(6-methoxy-pyridin-3-yl)-[1,2,4]triazolo[1,5-a]pyridin-2-yl]-urea] are 230 to 233 °C and > 64 µg/mL. For `CCNC(=O)Nc1nc2cc(-c3cnc(OC)nc3)ccn2n1` [Example 3, 1-Ethyl-3-[7-(2-methoxy-pyrimidin-5-yl)-[1,2,4]triazolo[1,5-a]pyridin-2-yl]-urea], in that order: 243 to 248 °C and > 64 µg/mL. For `CCNC(=O)Nc1nc2cc(-c3cccnc3)cc(C(=O)OC)n2n1` [Example 6, 2-(3-Ethyl-ureido)-7-pyridin-3-yl-[1,2,4]triazolo[1,5-a]pyridine-5-carboxylic acid methyl ester], in that order: 211 to 213 °C and 16 µg/mL (≈ 47 µM). For `CCNC(=O)Nc1nc2cc(-c3cccnc3)cc(C(=O)NC)n2n1` [Example 7, 2-(3-Ethyl-ureido)-7-pyridin-3-yl-[1,2,4]triazolo[1,5-a]pyridine-5-carboxylic acid methylamide], the melting point is > 300 °C. The MIC in series [1] (setting [2]) stood at 2 µg/mL (≈ 5.89 µM). As for `CCNC(=O)Nc1nc2cc(-c3cccnc3)cc(C(=O)OCC)n2n1` [Example 16, 2-(3-ethyl-ureido)-7-pyridin-3-yl-[1,2,4]triazolo[1,5-a]pyridine-5-carboxylic acid ethyl ester], the melting point is 242 to 245 °C. The same measure, in the same setting: then `CCNC(=O)Nc1nc2cc(-c3cccnc3)cc(-c3nc(C)no3)n2n1` [Example 18, 1-Ethyl-3-[5-(3-methyl-[1,2,4]oxadiazol-5-yl)-7-pyridin-3-yl-[1,2,4]triazolo[1,5-a]pyridin-2-yl]-urea], with 298 to 301 °C.

Compound `CCNC(=O)Nc1nc2cc(-c3cncnc3)cc(C(=O)NCC)n2n1` [Example 19, N-Ethyl-2-{[(ethylamino)carbonyl]amino}-7-pyrimidin-5-yl[1,2,4]triazolo[1,5-a]pyridine-5-carboxamide] registered a melting point of 317 to 321 °C. The minimum inhibitory concentration (MIC) in series [1] (setting [2]) was 1 µg/mL (≈ 2.82 µM). Compound `CCNC(=O)Nc1nc2cc(-c3cnc(N(C)C)nc3)cc(C(=O)NCC)n2n1` [Example 20, 7-[2-(Dimethylamino)pyrimidin-5-yl]-N-ethyl-2-{[(ethylamino)carbonyl]amino}[1,2,4]triazolo[1,5-a]pyridine-5-carboxamide] had a melting point of 328 to 334 °C. In addition, in series [1] (setting [2]), the MIC is 1 µg/mL (≈ 2.52 µM).

`CCNC(=O)Nc1nc2cc(-c3c(C)noc3C)cc(C(=O)NCC)n2n1` [Example 21, 7-(3,5-Dimethylisoxazol-4-yl)-N-ethyl-2-{[(ethylamino)carbonyl]amino}[1,2,4]triazolo[1,5-a]pyridine-5-carboxamide] gave a melting point of 238 to 241 °C. Further, in series [1] (setting [2]), the MIC was > 64 µg/mL. For `CCNC(=O)Nc1nc2cc(-c3cccnc3)cc(-c3nnc(C)o3)n2n1` [Example 23, N-Ethyl-N′-[5-(5-methyl-1,3,4-oxadiazol-2-yl)-7-pyridin-3-yl[1,2,4]triazolo[1,5-a]pyridin-2-yl]urea], in that order: 318 to 321 °C and > 64 µg/mL. For `CCNC(=O)Nc1nc2cc(-c3cccnc3)cc(N3CCC(N(C)C)C3)n2n1` (stereo not drawn) [Example 130, 1-[5-(3-Dimethylamino-pyrrolidin-1-yl)-7-pyridin-3-yl-[1,2,4]triazolo[1,5-a]pyridin-2-yl]-3-ethyl-urea], in that order: 248 to 250 °C and 16 µg/mL (≈ 40.6 µM). Turning to `CCNC(=O)Nc1nc2cc(-c3cccnc3)cc(N3CCOCC3)n2n1` [Example 133, 1-Ethyl-3-(5-morpholin-4-yl-7-pyridin-3-yl-[1,2,4]triazolo[1,5-a]pyridin-2-yl)-urea], the melting point lay in the range of 298 to 300 °C. The MIC in series [1] (setting [2]) came to 0.25 µg/mL (≈ 0.68 µM). Turning to `CCNC(=O)Nc1nc2cc(-c3cccnc3)cc(N3CCC(O)C3)n2n1` (stereo not drawn) [Example 134, 1-Ethyl-3-[5-(3-hydroxy-pyrrolidin-1-yl)-7-pyridin-3-yl-[1,2,4]triazolo[1,5-a]pyridin-2-yl]-urea], the melting point is 296 to 298 °C. Also, the MIC in series [1] (setting [2]) turned out to be 32 µg/mL (≈ 87.1 µM). The corresponding values for `CCNC(=O)Nc1nc2cc(-c3cccnc3)cc(OCCN(C)C)n2n1` [Example 141, 1-[5-(2-Dimethylamino-ethoxy)-7-pyridin-3-yl-[1,2,4]triazolo[1,5-a]pyridin-2-yl]-3-ethyl-urea] are 200 to 202 °C and 32 µg/mL (≈ 86.6 µM). For `CCNC(=O)Nc1nc2cc(-c3cccnc3)cc(OCCN3CCCC3)n2n1` [Example 143, N-Ethyl-N′-[7-pyridin-3-yl-5-(2-pyrrolidin-1-ylethoxy)[1,2,4]triazolo[1,5-a]pyridin-2-yl]urea], in that order: 189 to 192 °C (dec.) and 32 µg/mL (≈ 80.9 µM).

In the case of `CCNC(=O)c1cc(-c2cccnc2)cc2nc(NS(=O)(=O)CC)nn12` [Example 151, 2-N-ethylsulfonylamino-7-pyridin-3-yl-[1,2,4]triazolo[1,5-a]pyridin-5-carboxylic acid ethyl amide], the MIC in series [1] came out at 32.0 µg/mL (≈ 85.5 µM). As to `CCNC(=O)Nc1nc2cc(-c3cccnc3)cc(NC3CCN(C)CC3)n2n1` [Example 152, 1-Ethyl-3-[5-(1-methyl-piperidin-4-ylamino)-7-pyridin-3-yl[1,2,4]triazolo[1,5-a]pyridin-2-yl]-urea], the MIC in series [1] (setting [2]) was 8 µg/mL (≈ 20.3 µM). In series [1], “N-Methyl-N′-[5-(3-methylpyridin-2-yl)-7-pyridin-3-yl[1,2,4]triazolo[1,5-a]pyridin-2-yl]urea [Example 145]” registered an MIC of 16.0 µg/mL.
